We go through one molecule from patent US20250064733A1, “USE OF PEG-BASED INTERPOLYMER COMPLEXES FOR IMPROVED SOLUBILIZATION F BCS CLASS II DRUGS” (Dow Global Technologies LLC, priority 2022, published 2025).

This data set in a line: Apparent aqueous solubility of drug in 1% polymer solution (30 min standing, centrifugation, HPLC of supernatant). As to conditions: water without polymer; reference value for the increase; read-out: aqueous probucol solubility. The data set is classed as physicochemical. Here is the method: The following materials are used. The polyacrylic acid (PAA) has a molecular weight of about 1800, the polyethylene glycol used has either a molecular weight of 4000 or 8000 (as indicated in Table I below). The API chosen is either Probucol (>98% purity) or Ketoprofen (>98% purity). Each polymer or polymer combination shown in Table 1 is added to water in an amount to form 1% polymer solutions. Concentrated API solutions in methanol are prepared by adding 0.2 grams of drug to 10 ml of methanol (20 g/L of drug in methanol).
For each example in Table 1, 912 μl of the indicated polymer solution is transferred into individual vials. Then, 48 μl of drug solution in methanol is added to the polymer solution. These mixtures are agitated via three cycles of aspiration and dispensing using the EVO 200 pipettes. […]
The solubilized drug concentration in each taken aliquot was determined by reverse phase high-performance liquid chromatography (HPLC) analysis. […]
The drug concentration is determined from the measured elution profile by using a linear calibration curve for the respective drug, which was generated by determining the least squares fit of a straight line that described the relation between the concentration of four solutions of known concentrations (about 250, 500, 750, and 1000 mg/L) and the respective peak area integral after injection of 2 μL of each drug in methanol. […]

Take `CC(C)(Sc1cc(C(C)(C)C)c(O)c(C(C)(C)C)c1)Sc1cc(C(C)(C)C)c(O)c(C(C)(C)C)c1` [control, Probucol]: the solubility at 30 min was found to be 0.042 µg/mL.
